Values joined by “and” are separate entries in the source; they are usually repeats but may differ in a detail not shown here. Equal entries are not always repeated. Toxic doses and inconclusive results are not listed.
Tested on: L1210 leukemia ip in BDF1 mice, survival T/C
Assay: NCI In Vivo Anticancer Drug Screen. Data for tumor model L1210 Leukemia (intraperitoneal) in B6D2F1 (BDF1) mice
Settings: endpoint: mean survival time, higher = longer survival
Summary of the method: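 Antitumor effect is assessed in tumor-bearing animals. Survival in the compound arm is compared with a vehicle-dosed control arm and expressed as their quotient.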

[1] = dose: 6.25 mg/kg/injection, schedule: Q01DX009 (ip), vehicle: saline
[2] = dose: 12.5 mg/kg/injection, schedule: Q01DX009 (ip), vehicle: saline
[3] = dose: 50.0 mg/kg/injection, schedule: Q01DX009 (ip), vehicle: saline
[4] = dose: 100.0 mg/kg/injection, schedule: Q04DX003 (ip), vehicle: saline
[5] = dose: 200.0 mg/kg/injection, schedule: Q04DX003 (ip), vehicle: saline
[6] = dose: 400.0 mg/kg/injection, schedule: Q04DX003 (ip), vehicle: saline
[7] = dose: 100.0 mg/kg/injection, schedule: Q01DX009 (ip), vehicle: Klucel (hydroxypropylcellulose) (HPC)
[8] = dose: 100.0 mg/kg/injection, schedule: Q04DX003 (ip), vehicle: Klucel (hydroxypropylcellulose) (HPC)
[9] = dose: 200.0 mg/kg/injection, schedule: Q01DX009 (ip), vehicle: Klucel (hydroxypropylcellulose) (HPC)
[10] = dose: 200.0 mg/kg/injection, schedule: Q04DX003 (ip), vehicle: Klucel (hydroxypropylcellulose) (HPC)
[11] = dose: 400.0 mg/kg/injection, schedule: Q01DX009 (ip), vehicle: Klucel (hydroxypropylcellulose) (HPC)
[12] = dose: 100.0 mg/kg/injection, schedule: Q01DX001 (ip), vehicle: carboxymethylcellulose (CMC)
[13] = dose: 200.0 mg/kg/injection, schedule: Q01DX001 (ip), vehicle: carboxymethylcellulose (CMC)
[14] = dose: 400.0 mg/kg/injection, schedule: Q01DX001 (ip), vehicle: carboxymethylcellulose (CMC)

CN(C)CCCN1c2ccccc2Sc2c(Cl)cc(Cl)cc21
T/C [1]: 97 % of control
T/C [2]: 103 % of control
T/C (dose: 25.0 mg/kg/injection, schedule: Q01DX009 (ip), vehicle: saline): 101 % of control
T/C (dose: 25.0 mg/kg/injection, schedule: Q04DX003 (ip), vehicle: saline): 94 % of control
T/C [3]: 104 % of control
T/C (dose: 50.0 mg/kg/injection, schedule: Q04DX003 (ip), vehicle: saline): 113 % of control
T/C [4]: 118 % of control

CCSSCC(N)C(=O)O (configuration not stated)
T/C (dose: 100.0 mg/kg/injection, schedule: Q01DX001 (ip), vehicle: other): 94 % of control
T/C (dose: 200.0 mg/kg/injection, schedule: Q01DX001 (ip), vehicle: other): 103 % of control
T/C (dose: 400.0 mg/kg/injection, schedule: Q01DX001 (ip), vehicle: other): 103 % of control

NC(=O)n1nccc1N
T/C (dose: 100.0 mg/kg/injection, schedule: Q01DX009 (ip), vehicle: saline): 100 % of control
T/C [4]: 94 % of control
T/C (dose: 200.0 mg/kg/injection, schedule: Q01DX009 (ip), vehicle: saline): 103 % of control
T/C [5]: 104 % of control
T/C (dose: 400.0 mg/kg/injection, schedule: Q01DX009 (ip), vehicle: saline): 105 % of control
T/C [6]: 91 % of control

Cc1nccc2c(C)c3c(cc12)c1ccccc1n3CC1CO1 (configuration not stated)
T/C (dose: 4.69 mg/kg/injection, schedule: Q01DX009 (ip), vehicle: saline with Tween-80): 119 % of control
T/C (dose: 9.37 mg/kg/injection, schedule: Q04DX003 (ip), vehicle: saline with Tween-80): 113 % of control
T/C (dose: 18.75 mg/kg/injection, schedule: Q01DX009 (ip), vehicle: saline with Tween-80): 124 % of control
T/C (dose: 18.75 mg/kg/injection, schedule: Q04DX003 (ip), vehicle: saline with Tween-80): 119 % of control
T/C (dose: 37.5 mg/kg/injection, schedule: Q01DX009 (ip), vehicle: saline with Tween-80): 103 % of control
T/C (dose: 37.5 mg/kg/injection, schedule: Q04DX003 (ip), vehicle: saline with Tween-80): 122 % of control
T/C (dose: 75.0 mg/kg/injection, schedule: Q01DX009 (ip), vehicle: saline with Tween-80): 92 % of control
T/C (dose: 150.0 mg/kg/injection, schedule: Q04DX003 (ip), vehicle: saline with Tween-80): 115 % of control

CC[C@H]1CN2CCc3cc(OC)c(OC)cc3[C@@H]2C[C@@H]1C[C@@H]1c2cc(OC)c(OC)cc2CCN1N=O
T/C [4]: 100 % of control

CC1(C)N=C(N)N=C(N)N1c1ccc(CNC(=O)Nc2cccc(S(=O)(=O)F)c2)cc1
T/C [1]: 116 % of control
T/C [2]: 119 % of control
T/C [3]: 154 % of control
T/C (dose: 88.0 mg/kg/injection, schedule: Q04DX003 (ip), vehicle: saline): 113 % of control

Nc1ccc(OC(F)(F)C(F)Cl)cc1 (configuration not stated)
T/C [7]: 97 % of control
T/C [8]: 97 % of control
T/C [9]: 99 % of control
T/C [10]: 100 % of control
T/C [11]: 116 % of control
T/C (dose: 400.0 mg/kg/injection, schedule: Q04DX003 (ip), vehicle: Klucel (hydroxypropylcellulose) (HPC)): 101 % of control

CCCCSP(Cc1ccccc1)SCCCC
T/C [8]: 96 % of control
T/C [10]: 94 % of control

CC1(O)c2ccccc2-c2c1n([O-])c1ccccc1[n+]2=O (configuration not stated)
T/C (dose: 100.0 mg/kg/injection, schedule: Q04DX003 (ip), vehicle: saline sonified): 111 % of control
T/C (dose: 200.0 mg/kg/injection, schedule: Q04DX003 (ip), vehicle: saline sonified): 100 % of control
T/C (dose: 400.0 mg/kg/injection, schedule: Q04DX003 (ip), vehicle: saline sonified): 89 % of control

C=Cc1c(C)c2cc3[nH]c(cc4nc(cc5nc(cc1[nH]2)C(C)=C5CCC(=O)O)C(CCC(=O)O)=C4C)c(C)c3C=C
T/C (dose: 100.0 mg/kg/injection, schedule: Q04DX003 (ip), vehicle: dextrose): 96 % of control
T/C (dose: 200.0 mg/kg/injection, schedule: Q04DX003 (ip), vehicle: dextrose): 100 % of control
T/C (dose: 400.0 mg/kg/injection, schedule: Q01DX009 (ip), vehicle: saline with Tween-80): 88 % of control
T/C (dose: 400.0 mg/kg/injection, schedule: Q04DX003 (ip), vehicle: dextrose): 100 % of control

C[n+]1ccc(Nc2ccc(NC(=O)c3ccc(Nc4cc[n+](C)c5ccc([N+](=O)[O-])cc45)cc3)cc2)cc1
T/C (dose: 1.0 mg/kg/injection, schedule: Q01DX009 (ip), vehicle: water): 99 % of control
T/C (dose: 2.0 mg/kg/injection, schedule: Q01DX009 (ip), vehicle: water): 112 % of control
T/C (dose: 4.0 mg/kg/injection, schedule: Q01DX009 (ip), vehicle: water): 119 % of control
T/C (dose: 8.0 mg/kg/injection, schedule: Q01DX009 (ip), vehicle: water): 116 % of control
T/C (dose: 16.0 mg/kg/injection, schedule: Q01DX009 (ip), vehicle: water): 192 % of control
T/C (dose: 32.0 mg/kg/injection, schedule: Q01DX009 (ip), vehicle: water): 262 % of control
T/C [4]: 201 % of control and 219 % of control
T/C [5]: 213 % of control
T/C [6]: 150 % of control and 153 % of control

Nc1nc(N)c2nc(CNc3ccc(S(=O)(=O)NC(CCC(=O)O)C(=O)O)cc3)cnc2n1 (configuration not stated)
T/C (dose: 20.0 mg/kg/injection, schedule: Q01DX009 (ip), vehicle: Klucel (hydroxypropylcellulose) (HPC)): 114 % of control
T/C (dose: 40.0 mg/kg/injection, schedule: Q01DX009 (ip), vehicle: Klucel (hydroxypropylcellulose) (HPC)): 119 % of control
T/C (dose: 80.0 mg/kg/injection, schedule: Q01DX009 (ip), vehicle: Klucel (hydroxypropylcellulose) (HPC)): 124 % of control
T/C [9]: 120 % of control

Cc1cccc(NC(=O)/C=N/O)c1C
T/C [8]: 98 % of control
T/C [10]: 98 % of control

O=C(Nc1ccccc1)C1C2C=CC(CC2)C1C(=O)Nc1ccccc1 (configuration not stated)
T/C (dose: 100.0 mg/kg/injection, schedule: Q04DX003 (ip), vehicle: saline with Tween-80): 98 % of control
T/C (dose: 200.0 mg/kg/injection, schedule: Q04DX003 (ip), vehicle: saline with Tween-80): 107 % of control
T/C (dose: 400.0 mg/kg/injection, schedule: Q04DX003 (ip), vehicle: saline with Tween-80): 98 % of control

CCOC(=O)C(C#N)C(CC)(CC)C1CCCCC1 (configuration not stated)
T/C (dose: 50.0 mg/kg/injection, schedule: Q01DX001 (ip), vehicle: carboxymethylcellulose (CMC)): 102 % of control
T/C [12]: 102 % of control
T/C [13]: 96 % of control
T/C [14]: 113 % of control

CCCCCCOP(=O)(CCCCCC)OCCCCCC
T/C (dose: 13.3 mg/kg/injection, schedule: Q01DX Z (ip), vehicle: methylcellulose (MC)): 96 % of control
T/C (dose: 20.0 mg/kg/injection, schedule: Q01DX Z (ip), vehicle: methylcellulose (MC)): 102 % of control
T/C (dose: 25.0 mg/kg/injection, schedule: Q01DX009 (ip), vehicle: Klucel (hydroxypropylcellulose) (HPC)): 93 % of control
T/C (dose: 25.0 mg/kg/injection, schedule: Q04DX003 (ip), vehicle: Klucel (hydroxypropylcellulose) (HPC)): 94 % of control
T/C (dose: 30.0 mg/kg/injection, schedule: Q01DX Z (ip), vehicle: methylcellulose (MC)): 95 % of control
T/C (dose: 50.0 mg/kg/injection, schedule: Q01DX009 (ip), vehicle: Klucel (hydroxypropylcellulose) (HPC)): 101 % of control
T/C (dose: 50.0 mg/kg/injection, schedule: Q04DX003 (ip), vehicle: Klucel (hydroxypropylcellulose) (HPC)): 89 % of control
T/C [7]: 98 % of control
T/C [8]: 103 % of control

CC1(C)C2CCC(=O)OC1CC2 (configuration not stated)
T/C (dose: 5.0 mg/kg/injection, schedule: Q01DX001 (ip), vehicle: saline): 116 % of control
T/C (dose: 10.0 mg/kg/injection, schedule: Q01DX001 (ip), vehicle: saline): 100 % of control
T/C (dose: 20.0 mg/kg/injection, schedule: Q01DX001 (ip), vehicle: saline): 86 % of control
T/C (dose: 40.0 mg/kg/injection, schedule: Q01DX001 (ip), vehicle: saline): 108 % of control

CS(=O)(=O)Oc1c(Cl)cc(Cl)cc1Sc1cc(Cl)cc(Cl)c1OS(C)(=O)=O
T/C [12]: 95 % of control
T/C [13]: 104 % of control
T/C [14]: 101 % of control

COC(=O)C1CC2OC2C(C)C1C(=O)OC (configuration not stated)
T/C [7]: 95 % of control
T/C [9]: 103 % of control
T/C [11]: 105 % of control

O=C(O)COc1cc(F)c([N+](=O)[O-])cc1[N+](=O)[O-]
T/C (dose: 100.0 mg/kg/injection, schedule: Q04DX002 (ip), vehicle: Klucel (hydroxypropylcellulose) (HPC)): 90 % of control
T/C (dose: 200.0 mg/kg/injection, schedule: Q04DX002 (ip), vehicle: Klucel (hydroxypropylcellulose) (HPC)): 97 % of control

Source: PubChem BioAssay AID248 (DTP/NCI, 2004)
